According to US8071627B2, “2-pyridinylethylcarboxamide derivatives and their use as fungicides” (Bayer SAS, priority 2003, dated 2011):

Key:
Peronospora brassicae = assay: Test on Peronospora brassicae, cabbage plants, preventive spray; assay type: in vivo; details: 330 ppm; cabbage plants (Eminence variety); sprayed 24 hours before contamination; grading 5 days after contamination vs control plants
Method: (§1) The active ingredient tested is prepared by potter homogenisation in a concentrated suspension type formulation at 100 g/l. This suspension is then diluted with water to obtain the desired active material concentration.
(§2) Cabbage plants (Eminence variety) in starter cups, sown on a 50/50 peat soil-pozzolana substrate and grown at 18-20° C., are treated at the cotyledon stage by spraying with the aqueous suspension described above. Plants, used as controls, are treated with an aqueous solution not containing the active material.
After 24 hours, the plants are contaminated by spraying them with an aqueous suspension of Peronospora brassicae spores (50,000 spores per ml). The spores are collected from infected plant
The contaminated cabbage plants are incubated for 5 days at 20° C., under a humid atmosphere.
Grading is carried out 5 days after the contamination, in comparison with the control plants.

Alternaria brassicae = assay: In vivo test on Alternaria brassicae (leaf spot of crucifers), radish plants, preventive spray; details: 330 ppm; comparison compounds of WO 01/11965
Method: as §1
Radish plants (Pernot variety) in starter cups, sown on a 50/50 peat soil-pozzolana substrate and grown at 18-20° C., are treated at the cotyledon stage by spraying with the aqueous suspension described above.
Plants, used as controls, are treated with an aqueous solution not containing the active material.
After 24 hours, the plants are contaminated by spraying them with an aqueous suspension of Alternaria brassicae spores (40,000 spores per cm^3). The spores are collected from a 12-13-day-old culture.
The contaminated radish plants are incubated for 6-7 days at about 18° C., under a humid atmosphere.
Grading is carried out 6 to 7 days after the contamination, in comparison with the control plants.

Peronospora parasitica = assay: Efficacy against Peronospora parasitica (comparison compound); assay type: in vivo; details: 330 ppm; comparison compound of WO 01/11965
Botrytis cinerea = assay: In vivo test on Botrytis cinerea (cucumber grey mould), cucumber plants, preventive spray; details: 330 ppm; comparison compounds of WO 01/11965
Method: as §1
as §2, with “Cucumber” for “Cabbage”, “(Marketer” for “(Eminence”, “cotyledon Z11” for “cotyledon”
After 24 hours, the plants are contaminated by depositing drops of an aqueous suspension of Botrytis cinerea spores (150,000 spores per ml) on upper surface of the leaves. The spores are collected from a 15-day-old culture and are suspended in a nutrient solution-composed of: • 20 g/L of gelatin • 50 g/L of cane sugar • 2 g/L of NH4NO3 • 1 g/L of KH2PO4
The contaminated cucumber plants are settled for 5/7 days in a climatic room at 15-11° C. (day/night) and at 80% relative humidity.
Grading is carried out 5/7 days after the contamination, in comparison with the control plants.

## CC1=C(C(=O)NCC(NC(=O)c2c(Cl)cccc2Cl)c2ncc(C(F)(F)F)cc2Cl)SCCO1 (stereo not shown) [Compound 46]
Peronospora brassicae
  protection (good (at least 50%) to total): at least 50%

## O=C(Cc1cccs1)NCc1ncc(C(F)(F)F)cc1Cl [compound 101, N-{[3-chloro-5-(trifluoromethyl)-2-pyridinyl]methyl}-5-thienylacetamide]
Alternaria brassicae
  effectiveness on Alternaria brassicae (in words): poor efficacy
Peronospora parasitica
  efficacy against Peronospora parasitica (in words): no efficacy
Botrytis cinerea
  effectiveness on Botrytis cinerea (in words): no efficacy

## CCNC(=O)C(Cc1ncc(C(F)(F)F)cc1Cl)NC(=O)c1ccccc1 (stereo not shown) [compound 304, N-{1-ethylcarbamoyl-2-[3-chloro-5-(trifluoromethyl)-2-pyridinyl]-ethyl}-benzamide]
Botrytis cinerea
  effectiveness on Botrytis cinerea (in words): zero effectiveness

## CCNC(=O)C(Cc1ncc(C(F)(F)F)cc1Cl)NC(=O)c1ccc(Cl)cc1 (stereo not shown) [compound 306, N-{1-ethylcarbamoyl-2-[3-chloro-5-(trifluoromethyl)-2-pyridinyl]ethyl}-4-chlorobenzamide]
Botrytis cinerea
  effectiveness on Botrytis cinerea (in words): zero effectiveness

## CCNC(=O)C(Cc1ncc(C(F)(F)F)cc1Cl)NC(=O)c1cccc([N+](=O)[O-])c1 (stereo not shown) [compound 307, N-{1-ethylcarbamoyl-2-[3-chloro-5-(trifluoromethyl)-2-pyridinyl]ethyl}-3-nitrobenzamide]
Alternaria brassicae
  effectiveness on Alternaria brassicae (in words): poor effectiveness
Botrytis cinerea
  effectiveness on Botrytis cinerea (in words): zero effectiveness

## CCNC(=O)C(Cc1ncc(C(F)(F)F)cc1Cl)NC(=O)c1ccccc1Br (stereo not shown) [compound 310, N-{1-ethylcarbamoyl-2-[3-chloro-5-(trifluoromethyl)-2-pyridinyl]ethyl}-2-bromobenzamide]
Botrytis cinerea
  effectiveness on Botrytis cinerea (in words): zero effectiveness

## CNC(=O)C(Cc1ncc(C(F)(F)F)cc1Cl)NC(=O)c1ccccc1 (stereo not shown) [compound 314, N-{1-methylcarbamoyl-2-[3-chloro-5-(trifluoromethyl)-2-pyridinyl]ethyl}-benzamide]
Botrytis cinerea
  effectiveness on Botrytis cinerea (in words): zero effectiveness

## CNC(=O)C(Cc1ncc(C(F)(F)F)cc1Cl)NC(=O)c1ccc(OC)cc1 (stereo not shown) [compound 315, N-{1-methylcarbamoyl-2-[3-chloro-5-(trifluoromethyl)-2-pyridinyl]ethyl}-4-methoxybenzamide]
Botrytis cinerea
  effectiveness on Botrytis cinerea (in words): zero effectiveness

## CNC(=O)C(Cc1ncc(C(F)(F)F)cc1Cl)NC(=O)c1ccc(-c2ccccc2)cc1 (stereo not shown) [compound 316, N-{1-methylcarbamoyl-2-[3-chloro-5-(trifluoromethyl)-2-pyridinyl]-ethyl}-4-phenylbenzamide]
Alternaria brassicae
  effectiveness on Alternaria brassicae (in words): poor effectiveness
Botrytis cinerea
  effectiveness on Botrytis cinerea (in words): zero effectiveness
